Here are results for two molecules from article PMC5361891 (Journal of chemical information and modeling, 2017).

SMILES strings stand for the structures.

One assay has as its target 5-HT1AR. Particulars: affinity toward 5-HT1AR; cited from earlier work.
In another assay the target is human 5-HT7bR (Homo sapiens, UniProt P34969). Description: Radioligand binding assay, [3H]-5-CT displacement. The note with it: read-out: Ki 5-HT7; HEK293 cell membranes, 0.6 nM [3H]-5-CT, 37 °C 1 h.
A further assay concerns the target human 5-HT2AR (Homo sapiens, UniProt P28223). The assay is described as follows: Radioligand binding assay, [3H]-Ketanserin displacement. Particulars: read-out: Ki 5-HT2A; HEK293 cell membranes, 1.0 nM [3H]-Ketanserin, 37 °C 1 h.
The next assay concerns the target human 5-HT6R (Homo sapiens, UniProt P50406). The assay is described as follows: Radioligand binding assay, [3H]-LSD displacement. The note with it: read-out: Ki 5-HT6; HEK293 cell membranes, 2 nM [3H]-LSD, 37 °C 1 h.

Chain of human 5-HT6R (P50406 whole entry): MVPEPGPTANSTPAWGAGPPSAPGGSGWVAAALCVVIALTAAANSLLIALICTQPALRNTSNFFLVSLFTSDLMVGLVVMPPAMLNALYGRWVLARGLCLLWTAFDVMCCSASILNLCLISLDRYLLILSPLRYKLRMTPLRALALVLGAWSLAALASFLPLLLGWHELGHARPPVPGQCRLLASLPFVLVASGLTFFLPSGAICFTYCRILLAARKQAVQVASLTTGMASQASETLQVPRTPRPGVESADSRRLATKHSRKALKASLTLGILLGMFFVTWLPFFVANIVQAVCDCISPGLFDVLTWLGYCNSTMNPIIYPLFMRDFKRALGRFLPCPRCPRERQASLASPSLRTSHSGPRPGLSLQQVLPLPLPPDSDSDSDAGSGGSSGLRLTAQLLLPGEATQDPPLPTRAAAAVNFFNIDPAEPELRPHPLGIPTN
Chain of human 5-HT2AR (P28223 whole entry): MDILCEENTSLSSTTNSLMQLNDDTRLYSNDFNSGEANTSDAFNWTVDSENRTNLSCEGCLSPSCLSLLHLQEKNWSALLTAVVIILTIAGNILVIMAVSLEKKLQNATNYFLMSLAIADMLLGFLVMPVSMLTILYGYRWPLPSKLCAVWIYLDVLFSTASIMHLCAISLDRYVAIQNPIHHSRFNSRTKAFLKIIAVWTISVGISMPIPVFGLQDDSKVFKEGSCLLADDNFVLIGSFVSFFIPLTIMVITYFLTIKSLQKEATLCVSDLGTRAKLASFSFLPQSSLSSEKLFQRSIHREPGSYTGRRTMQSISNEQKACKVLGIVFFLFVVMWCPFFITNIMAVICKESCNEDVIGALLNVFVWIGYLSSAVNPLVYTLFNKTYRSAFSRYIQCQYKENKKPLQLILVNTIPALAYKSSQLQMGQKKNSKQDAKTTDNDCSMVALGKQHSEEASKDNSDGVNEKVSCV
Chain of human 5-HT7bR (P34969 1-432 limits assumed): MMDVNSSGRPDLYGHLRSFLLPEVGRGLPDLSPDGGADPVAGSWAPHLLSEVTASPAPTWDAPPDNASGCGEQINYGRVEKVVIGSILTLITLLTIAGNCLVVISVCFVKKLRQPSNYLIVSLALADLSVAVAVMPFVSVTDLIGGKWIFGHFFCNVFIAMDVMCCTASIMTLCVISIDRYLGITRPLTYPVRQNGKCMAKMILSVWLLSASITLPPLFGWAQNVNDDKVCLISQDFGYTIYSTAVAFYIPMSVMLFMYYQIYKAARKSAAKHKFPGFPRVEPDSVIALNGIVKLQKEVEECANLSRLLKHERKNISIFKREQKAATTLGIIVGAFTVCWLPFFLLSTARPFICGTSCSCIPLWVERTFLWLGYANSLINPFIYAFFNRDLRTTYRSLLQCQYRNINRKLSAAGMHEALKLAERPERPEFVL

For the molecule `COc1ccccc1N1CCN(CCCCNC(=O)C23CC4CC(C2)C(C4)C3)CC1` [NBUMP, 4-[4-(1-noradamantanecarboxamido)butyl]-1-(2-methoxyphenyl)piperazine], the Ki on 5-HT1AR was 0.0001 µM.

In the case of `COC(=O)c1ccc(C2c3c(-c4ccccc4O)n[nH]c3C(=O)N2Cc2ccncc2)cc1` (stereo not shown) [D174-0581], the results for the Ki on human 5-HT7bR, at human 5-HT2AR and on human 5-HT6R were 6.48 µM, 3.75 µM and 13.5 µM, respectively.
